Source: ChEMBL document CHEMBL4308864, “Targeting tyrosine kinase: Development of acridone - pyrrole - oxindole hybrids against human breast cancer” (2019)

Key:
Type in all cases: functional
[1] = test system: CCRF-CEM; experiment: Growth inhibition of human CCRF-CEM cells assessed as cell growth at 10^-5 M incubated for 48 hrs by sulforhodamine B assay relative to control; details: read-out: Activity
[2] = test system: K562; experiment: Growth inhibition of human K562 cells assessed as cell growth at 10^-5 M incubated for 48 hrs by sulforhodamine B assay relative to control; details: K562, 48 h, read-out: Activity
[3] = test system: RPMI-8226; experiment: Growth inhibition of human RPMI8226 cells assessed as cell growth at 10^-5 M incubated for 48 hrs by sulforhodamine B assay relative to control; details: RPMI-8226, 48 h, read-out: Activity
[4] = test system: SR; experiment: Growth inhibition of human SR cells assessed as cell growth at 10^-5 M incubated for 48 hrs by sulforhodamine B assay relative to control; details: read-out: Activity
[5] = test system: HOP-62; experiment: Growth inhibition of human HOP62 cells assessed as cell growth at 10^-5 M incubated for 48 hrs by sulforhodamine B assay relative to control; details: HOP-62, 48 h, read-out: Activity
[6] = test system: NCI-H226; experiment: Growth inhibition of human NCI-H226 cells assessed as cell growth at 10^-5 M incubated for 48 hrs by sulforhodamine B assay relative to control; details: NCI-H226, 48 h, read-out: Activity
[7] = test system: NCI-H23; experiment: Growth inhibition of human NCI-H23 cells assessed as cell growth at 10^-5 M incubated for 48 hrs by sulforhodamine B assay relative to control; details: NCI-H23, 48 h, read-out: Activity
[8] = test system: NCI-H460; experiment: Growth inhibition of human NCI-H460 cells assessed as cell growth at 10^-5 M incubated for 48 hrs by sulforhodamine B assay relative to control; details: NCI-H460, 48 h, read-out: Activity
[9] = test system: NCI-H522; experiment: Growth inhibition of human NCI-H522 cells assessed as cell growth at 10^-5 M incubated for 48 hrs by sulforhodamine B assay relative to control; details: NCI-H522, 48 h, read-out: Activity
[10] = test system: COLO 205; experiment: Growth inhibition of human COLO205 cells assessed as cell growth at 10^-5 M incubated for 48 hrs by sulforhodamine B assay relative to control; details: COLO 205, 48 h, read-out: Activity
[11] = test system: HCC 2998; experiment: Growth inhibition of human HCC2998 cells assessed as cell growth at 10^-5 M incubated for 48 hrs by sulforhodamine B assay relative to control; details: HCC 2998, 48 h, read-out: Activity
[12] = test system: HT-29; experiment: Growth inhibition of human HT-29 cells assessed as cell growth at 10^-5 M incubated for 48 hrs by sulforhodamine B assay relative to control; details: HT-29, 48 h, read-out: Activity
[13] = test system: SF-539; experiment: Growth inhibition of human SF539 cells assessed as cell growth at 10^-5 M incubated for 48 hrs by sulforhodamine B assay relative to control; details: SF-539, 48 h, read-out: Activity
[14] = test system: SNB-75; experiment: Growth inhibition of human SNB75 cells assessed as cell growth at 10^-5 M incubated for 48 hrs by sulforhodamine B assay relative to control; details: SNB-75, 48 h, read-out: Activity
[15] = test system: LOX IMVI; experiment: Growth inhibition of human LOXIMVI cells assessed as cell growth at 10^-5 M incubated for 48 hrs by sulforhodamine B assay relative to control; details: read-out: Activity
[16] = test system: MDA-MB-435; experiment: Growth inhibition of human MDA-MB-435 cells assessed as cell growth at 10^-5 M incubated for 48 hrs by sulforhodamine B assay relative to control; details: MDA-MB-435, 48 h, read-out: Activity
[17] = test system: SK-MEL-5; experiment: Growth inhibition of human SK-MEL-5 cells assessed as cell growth at 10^-5 M incubated for 48 hrs by sulforhodamine B assay relative to control; details: SK-MEL-5, 48 h, read-out: Activity
[18] = test system: UACC-257; experiment: Growth inhibition of human UACC257 cells assessed as cell growth at 10^-5 M incubated for 48 hrs by sulforhodamine B assay relative to control; details: UACC-257, 48 h, read-out: Activity
[19] = test system: OVCAR-3; experiment: Growth inhibition of human OVCAR3 cells assessed as cell growth at 10^-5 M incubated for 48 hrs by sulforhodamine B assay relative to control; details: OVCAR-3, 48 h, read-out: Activity
[20] = test system: OVCAR-4; experiment: Growth inhibition of human OVCAR4 cells assessed as cell growth at 10^-5 M incubated for 48 hrs by sulforhodamine B assay relative to control; details: OVCAR-4, 48 h, read-out: Activity
[21] = test system: OVCAR-5; experiment: Growth inhibition of human OVCAR5 cells assessed as cell growth at 10^-5 M incubated for 48 hrs by sulforhodamine B assay relative to control; details: OVCAR-5, 48 h, read-out: Activity
[22] = test system: OVCAR-8; experiment: Growth inhibition of human OVCAR8 cells assessed as cell growth at 10^-5 M incubated for 48 hrs by sulforhodamine B assay relative to control; details: OVCAR-8, 48 h, read-out: Activity
[23] = test system: NCI/ADR-RES; experiment: Growth inhibition of human NCI/ADR-RES cells assessed as cell growth at 10^-5 M incubated for 48 hrs by sulforhodamine B assay relative to control; details: read-out: Activity
[24] = test system: 786-0; experiment: Growth inhibition of human 786-0 cells assessed as cell growth at 10^-5 M incubated for 48 hrs by sulforhodamine B assay relative to control; details: 786-0, 48 h, read-out: Activity
[25] = test system: CAKI-1; experiment: Growth inhibition of human Caki1 cells assessed as cell growth at 10^-5 M incubated for 48 hrs by sulforhodamine B assay relative to control; details: CAKI-1, 48 h, read-out: Activity
[26] = test system: SN12C; experiment: Growth inhibition of human SN12C cells assessed as cell growth at 10^-5 M incubated for 48 hrs by sulforhodamine B assay relative to control; details: read-out: Activity
[27] = test system: TK-10; experiment: Growth inhibition of human TK10 cells assessed as cell growth at 10^-5 M incubated for 48 hrs by sulforhodamine B assay relative to control; details: TK-10, 48 h, read-out: Activity
[28] = test system: PC-3; experiment: Growth inhibition of human PC3 cells assessed as cell growth at 10^-5 M incubated for 48 hrs by sulforhodamine B assay relative to control; details: PC-3, 48 h, read-out: Activity
[29] = test system: DU-145; experiment: Growth inhibition of human DU145 cells assessed as cell growth at 10^-5 M incubated for 48 hrs by sulforhodamine B assay relative to control; details: DU-145, 48 h, read-out: Activity
[30] = test system: MDA-MB-231; experiment: Growth inhibition of human MDA-MB-231 cells assessed as cell growth at 10^-5 M incubated for 48 hrs by sulforhodamine B assay relative to control; details: MDA-MB-231, 48 h, read-out: Activity
[31] = test system: Hs-578T; experiment: Growth inhibition of human Hs578T cells assessed as cell growth at 10^-5 M incubated for 48 hrs by sulforhodamine B assay relative to control; details: read-out: Activity
[32] = test system: BT-549; experiment: Growth inhibition of human BT549 cells assessed as cell growth at 10^-5 M incubated for 48 hrs by sulforhodamine B assay relative to control; details: BT-549, 48 h, read-out: Activity

O=C1Nc2ccccc2/C1=C/c1cccn1CCCCCn1c2ccccc2c(=O)c2ccccc21
growth at 10 µM [1]: 44.9% | growth at 10 µM [2]: 52.1% | growth at 10 µM [3]: 22.1% | growth at 10 µM [4]: 76.1% | growth at 10 µM [5]: 58.3% | growth at 10 µM [6]: 70% | growth at 10 µM [7]: 69.6% | growth at 10 µM [8]: 95.9% | growth at 10 µM [9]: 66.3% | growth at 10 µM [10]: 56.2% | growth at 10 µM [11]: 42.5% | growth at 10 µM [12]: 89.5% | growth at 10 µM [13]: 94.2% | growth at 10 µM [14]: 86.7% | growth at 10 µM [15]: 80.3% | growth at 10 µM [16]: 93.6% | growth at 10 µM [17]: 32.2% | growth at 10 µM [18]: 106% | growth at 10 µM [19]: 70.9% | growth at 10 µM [20]: 57.1% | growth at 10 µM [21]: 82.6% | growth at 10 µM [22]: 45.6% | growth at 10 µM [23]: 60.9% | growth at 10 µM [24]: 105% | growth at 10 µM [25]: 65.9% | growth at 10 µM [26]: 97.1% | growth at 10 µM [27]: 93.8% | growth at 10 µM [28]: 42% | growth at 10 µM [29]: 97.9% | growth at 10 µM [30]: 69.3% | growth at 10 µM [31]: 90.5% | growth at 10 µM [32]: 65.5%

O=C1NC(=O)C(=Cc2cccn2CCCCCn2c3ccccc3c(=O)c3ccccc32)C(=O)N1
growth at 10 µM [1]: 100% | growth at 10 µM [2]: 89.1% | growth at 10 µM [3]: 92% | growth at 10 µM [4]: 86.8% | growth at 10 µM [5]: 102% | growth at 10 µM [6]: 99.2% | growth at 10 µM [7]: 96.3% | growth at 10 µM [8]: 108% | growth at 10 µM [9]: 90.5% | growth at 10 µM [10]: 114% | growth at 10 µM [11]: 105% | growth at 10 µM [12]: 103% | growth at 10 µM [13]: 102% | growth at 10 µM [14]: 101% | growth at 10 µM [15]: 95.3% | growth at 10 µM [16]: 97.7% | growth at 10 µM [17]: 98.7% | growth at 10 µM [18]: 104% | growth at 10 µM [19]: 105% | growth at 10 µM [20]: 99.8% | growth at 10 µM [21]: 101% | growth at 10 µM [22]: 102% | growth at 10 µM [23]: 99.5% | growth at 10 µM [24]: 99% | growth at 10 µM [25]: 103% | growth at 10 µM [26]: 106% | growth at 10 µM [27]: 101% | growth at 10 µM [28]: 91% | growth at 10 µM [29]: 113% | growth at 10 µM [30]: 116% | growth at 10 µM [31]: 106% | growth at 10 µM [32]: 104%

O=C1Nc2ccccc2/C1=C/c1cccn1CCCCn1c2ccccc2c(=O)c2ccccc21
growth at 10 µM [1]: 52.8% | growth at 10 µM [2]: 59.5% | growth at 10 µM [3]: 33.5% | growth at 10 µM [4]: 80.1% | growth at 10 µM [5]: 77.4% | growth at 10 µM [6]: 75.2% | growth at 10 µM [7]: 77.4% | growth at 10 µM [8]: 93.7% | growth at 10 µM [9]: 68.4% | growth at 10 µM [10]: 69.8% | growth at 10 µM [11]: 40.5% | growth at 10 µM [12]: 89.1% | growth at 10 µM [13]: 93% | growth at 10 µM [14]: 78% | growth at 10 µM [15]: 82.5% | growth at 10 µM [16]: 92.7% | growth at 10 µM [17]: 38.6% | growth at 10 µM [18]: 105% | growth at 10 µM [19]: 86.7% | growth at 10 µM [20]: 65.8% | growth at 10 µM [21]: 77.9% | growth at 10 µM [22]: 58.8% | growth at 10 µM [23]: 73.9% | growth at 10 µM [24]: 97% | growth at 10 µM [25]: 69.5% | growth at 10 µM [26]: 97.9% | growth at 10 µM [27]: 104% | growth at 10 µM [28]: 55.1% | growth at 10 µM [29]: 94.2% | growth at 10 µM [30]: 64.7% | growth at 10 µM [31]: 86.3% | growth at 10 µM [32]: 74.5%

O=C1NC(=O)C(=Cc2cccn2CCCCCCn2c3ccccc3c(=O)c3ccccc32)C(=O)N1
growth at 10 µM [1]: 93.8% | growth at 10 µM [2]: 74.7% | growth at 10 µM [3]: 73.9% | growth at 10 µM [4]: 72.2% | growth at 10 µM [5]: 93.1% | growth at 10 µM [6]: 89.5% | growth at 10 µM [7]: 84.2% | growth at 10 µM [8]: 101% | growth at 10 µM [9]: 92.7% | growth at 10 µM [10]: 105% | growth at 10 µM [11]: 101% | growth at 10 µM [12]: 105% | growth at 10 µM [13]: 107% | growth at 10 µM [14]: 107% | growth at 10 µM [15]: 89.7% | growth at 10 µM [16]: 102% | growth at 10 µM [17]: 85.7% | growth at 10 µM [18]: 103% | growth at 10 µM [19]: 103% | growth at 10 µM [20]: 95.4% | growth at 10 µM [21]: 98.3% | growth at 10 µM [22]: 93% | growth at 10 µM [23]: 92.9% | growth at 10 µM [24]: 97.9% | growth at 10 µM [25]: 92.8% | growth at 10 µM [26]: 100% | growth at 10 µM [27]: 126% | growth at 10 µM [28]: 87.7% | growth at 10 µM [29]: 103% | growth at 10 µM [30]: 94.6% | growth at 10 µM [31]: 106% | growth at 10 µM [32]: 93.9%
